The values that follow come from paper PMC3578427 (Journal of medicinal chemistry, 2011).

pKi: −log10 of the molar value. Structures can show the parent of a compound that is named as a salt.

The target of one data set is T1, hA3 AR (Homo sapiens, UniProt P0DMS8).
T1 sequence (P0DMS8 1-318): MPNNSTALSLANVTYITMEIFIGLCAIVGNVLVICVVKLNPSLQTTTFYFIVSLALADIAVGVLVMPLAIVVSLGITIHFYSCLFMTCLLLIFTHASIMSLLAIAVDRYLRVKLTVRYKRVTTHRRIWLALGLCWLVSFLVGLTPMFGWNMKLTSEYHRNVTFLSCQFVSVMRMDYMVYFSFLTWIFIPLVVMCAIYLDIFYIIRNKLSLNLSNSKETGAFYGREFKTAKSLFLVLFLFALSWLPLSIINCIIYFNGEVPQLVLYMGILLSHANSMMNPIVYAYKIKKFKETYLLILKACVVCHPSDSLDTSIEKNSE

The next data set addresses T2, hA2B AR (Homo sapiens, UniProt P29275).
T2 sequence (P29275 1-332): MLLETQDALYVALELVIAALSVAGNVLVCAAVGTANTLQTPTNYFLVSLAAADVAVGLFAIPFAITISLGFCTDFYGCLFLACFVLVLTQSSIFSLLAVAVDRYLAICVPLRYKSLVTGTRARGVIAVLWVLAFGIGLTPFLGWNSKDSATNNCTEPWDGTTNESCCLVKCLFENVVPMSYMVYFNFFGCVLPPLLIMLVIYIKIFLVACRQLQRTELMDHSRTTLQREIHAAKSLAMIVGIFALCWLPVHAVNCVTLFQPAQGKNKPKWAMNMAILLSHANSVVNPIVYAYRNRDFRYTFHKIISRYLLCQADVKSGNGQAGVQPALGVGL

Another data set can be described thus: Water solubility. It counts as physicochemical.
The subject of a further data set is human (h) A2B AR. The following applies: cited from earlier work.

Consider `CC(C)(C)OC(=O)NCCNc1nc(N)n2nc(-c3ccco3)nc2n1` [Compound 10, 7-Amino-5-[(2-tert-butyloxycarbonylamino)ethyl]-amino-2(2-furyl) 1,2,4-triazolo [1,5-a] 1,3,5-triazine], for which the pKi at hA3 AR was roughly 6.00.
For `CC(C)(C)OC(=O)NCC1CCC(CNc2nc(N)n3nc(-c4ccco4)nc3n2)CC1` (stereo not drawn) [Compound 11, 7-Amino-5-[(4-tert-butyloxycarbonylaminomethyl)cyclohexylmethyl]-amino-2(2-furyl) 1,2,4-triazolo [1,5-a] 1,3,5-triazine], on hA2B AR, the “activity at hA2B AR in the functional assay” value is listed as “poorly active”.
For `NCCOCCOCCNc1nc(N)n2nc(-c3ccco3)nc2n1.O=C(O)C(F)(F)F` [Compound 20, 7-Amino-5-[(8-amino)triethylenoxy]-amino-2(2-furyl) 1,2,4-triazolo [1,5-a] 1,3,5-triazine trifluoroacetate], the solubility in “Water solubility” is no less than 10 mM.
Regarding `Nc1nc(N)n2nc(-c3ccco3)nc2n1` [Compound 41, 5,7-diamino-2(2-furyl) 1,2,4-triazolo [1,5-a] 1,3,5-triazine], on hA2B AR, the “activity at hA2B AR in the functional assay” value was “poorly active”.
Still for that read-out and setting: in the case of `Nc1nc(NC(=O)c2ccccc2)n2nc(-c3ccco3)nc2n1` [Compound 43, 5-amino-7-phenylcarbonylamino-2(2-furyl) 1,2,4-triazolo [1,5-a] 1,3,5-triazine trifluoroacetate] it was “poorly active”.
In the case of `Nc1nc(NCCc2ccc(O)cc2)nc2nc(-c3ccco3)nn12` [ZM241385], the “affinity at hA2B AR” value in the data set with human (h) A2B AR is reported as 28 nM.

The term pKi denotes the negative decadic logarithm of the Ki, by convention in mol/L. Read a low pKi as a high Ki. The term solubility denotes the concentration that dissolves in the medium under given conditions.
